Source: US20210323918A1, “COMPOSITIONS AND METHODS FOR SUPPRESSING AND/OR TREATING A GROWTH RELATED DISEASE AND/OR A CLINICAL CONDITION THEREOF” (CK Biotech Inc., priority 2018, published 2021)

System: C28/I2 cells
Assay: Protein and mRNA expression in C28/I2 chondrocyte cells
Format: cell-based, human
Excerpt: Cell culture and reagents. The mouse chondrogenic cell line, ATDC5, was obtained from the RIKEN Cell Batik. The human juvenile costal chondrocyte cell line, C28/I2, was provided by Dr. W. U. Kim (Catholic University, Korea). HEK293-TOP cells (HEK293 cells containing the chromosomally incorporated TOPFlash gene) were provided by Dr. S. Oh (Kuk Min University, Korea). ATDCS cells were maintained in DMEM/F12 (1:1) (Gibco, Grand Island, N.Y.) supplemented with 5% FBS (Gibco). To induce hypertrophic differentiation, ATDC5 cells were incubated with insulin-transferrin-sodium selenite (ITS) supplement (Gibco) in three-dimensional alginate beads for 3 days, as previously described. See e.g., Kawasaki Y. et al. (2008), Phosphorylation of GSK-3beta by cGMP-dependent protein kinase II promotes hypertrophic differentiation of murine chondrocytes. J CLIN INVEST 118: 2506-2515. C28/I2 and HEK293-TOP cells were maintained in DMEM (Gibco) containing 10% FBS. All chemicals were dissolved in dimethyl sulfoxide (DMSO; Sigma-Aldrich, St Louis, Mo.) for the in vitro studies. For E2 (17β-estradiol; Sigma-Aldrich) treatment, cells were cultured in phenol red-free DMEM/F12 with 5% charcoal-stripped FBS for 24 hours followed by serum-free medium for 24 hours before the experiment. The PTD-DBMP was synthesized by Peptide 2.0 Inc (Chantilly, Va.).
Immunocytochemistry. ATDCS or C28/I2 cells were seeded on glass coverslip in 12-well culture plates. The cells were washed with PBS and fixed with 4% PFA at room temperature for 15 minutes. After permeabilization with 0.1% triton-X-100 for 15 minutes and blocking with 5% BSA for 1 hour, the cells were incubated with primary antibodies specific for β-catenin (1:100) or CXXC5 l (1:200) at 4° C. overnight. […]
Immunoblot analyses. […] Immunoblot bands were analyzed using Multi-Gauge V3.0 software (Fujifilm). Points of interest (POIs) from immunoblot bands were marked and quantified using densitometry, and the background signals were subtracted from respective immunoblot signals. […]
Reverse transcription and quantitative real-time PCR. […]

| Compound | mRNA levels of chondrogenic markers (1 μM, 3 days, alginate beads, FIG. 11C) | expression of CXXC5 (100 nM, 0-72 hours, FIG. 2A) | β-catenin level (100 nM, following 24 hours) |
| --- | --- | --- | --- |
| CO/N=C1/C(=C2/C(=O)Nc3cc(Cl)c(Cl)cc32)Nc2ccccc21 [KY19382, 5,6-dichloroindirubin-3′-methoxime] | upregulated |  |  |
| 17β-estradiol [Compound E2] |  | induced expression of CXXC5 in a time-dependent manner | reduced |
